From patent US4107299A, “Cardioactive 12-epi-digoxin and derivatives thereof” (Boehringer Mannheim GmbH, priority 1975, dated 1978) come the findings set out here.

The test has as its system insulated, electrically stimulated left atrium of the guinea pig. Description: Therapeutic effect and therapeutic spectrum at the insulated, electrically stimulated left atrium of the guinea pig. The settings on record: mean and average deviation; for EC50 / Emax: Cavia porcellus; for Emax: in percentage of the decrease of the amplitude by reduction of the calcium content (1.8 to 0.45 mVal), read-out: Contraction Amplitude maximum increase (%); for Contraction Amplitude maximum increase: maximum contraction amplitude with increasing glycoside concentrations, calcium reduced from 1.8 to 0.45 mVal, 31° C, 3 Hz; for therapeutic spectrum: quotient EC50 decrease/EC50 increase. Type of test: cell-based. The procedure:
Comparison of the therapeutic spectrum of various cardioactive glycosides was undertaken, employing electrical stimulation of the insulated left atrium of guinea pigs. Specifically, the left atrium was suspended in Tyrode solution at 31° C and electrically stimulated by a frequency of 3 Hz with rectangular impulses of 2 m sec. duration and optimum tension. The maximum contraction strength was registered semi-isometrically.
When a constant contraction amplitude has set in, the calcium concentration was reduced from 1.8 to 0.45 mVal. The initial tension was adjusted to 1 g at the start of the test; if necessary, it was adjusted after the readjustment to a solution poor in calcium, however, no longer changed during the further course of the experiment.
Of the glycosides to be tested, stock solutions were prepared in dimethyl acetamide and, for the test with NaCl-solution so diluted that the stated end concentrations were obtained with the addition of 0.1 ml to a bath volume of 80 ml. It was determined in preliminary tests that up to 0.4 ml undiluted dimethyl acetamide were tolerated without influencing the contractility.
If, after reduction of the calcium concnetration, a constant degree of contraction was again obtained after approximately 10 minutes, concentrations of the glycoside to be tested were added in the ratio 1 + 1 + 2 + 4, etc. The period between the individual additions was 15 minutes.
Prior to the change-over to a calcium-poor Tyrode solution and prior to each addition of glycoside, as well as 15 minutes after the last dose, the prestress was measured in grams and the contraction amplitude in mg. The difference of the amplitude was calculated from the test values for the contraction amplitude after reduction of the calcium content. The difference between the contraction amplitude before and after the change-over to a calcium-poor solution was put as equal to 100% amplitude reduction.
It was determined for each individual atrium when, with administration of increasing concentrations of the glycosides, there was obtained
the maximum contraction amplitude ("maximum increase");
increase of the amplitude to 50% of the difference between normal and reduced calcium content ("EC50 increase");
decrease of the contraction amplitude to the same height ("EC50 decrease");
the therapeutic spectrum quotient of the two EC50, i.e. EC50 decrease/EC50 increase.
With these evaluation processes, there are obtained numerical data for the concentration and the period during which the corresponding effect was observed. In order to obtain a uniform basis for the evaluation, differences in the time of the appearance were converted into concentrations according to the following method:
The logarithm of the concentration was graphically plotted against the time in such manner that the lowest concentration was put at 15 minutes, the next higher one at 30 minutes, etc. The evaluation of the tests yielded the time after the start of the test at which the respective effect had appeared. The concentration pertaining to it was read from the diagram.
This procedure is based on the assumption that the concentration increases exponentially at the place of the effect. De facto this assumption is more correct than a regular increase in concentration in stages in the bath liquid since there is a substantial time lapse between the increase of the concentration in the bath and in the tissue.
In addition, the maximum degree of […] was measured in all tests under the influence of the glycosides and in percentage of the decrease of the amplitude by reduction of the calcium content.

Setting [1] is: decrease of the contraction amplitude to the same height (50%) at higher concentrations, read-out: EC50 decrease.
Setting [2] is: increase of the amplitude to 50% of the difference between normal and reduced calcium content, read-out: EC50 increase.

Structures are written as SMILES. Like-named read-outs stand apart in the source and are kept apart here.

Regarding `C[C@H]1O[C@@H](O[C@H]2[C@@H](O)C[C@H](O[C@H]3[C@@H](O)C[C@H](O[C@H]4CC[C@@]5(C)[C@H](CC[C@@H]6[C@@H]5C[C@H](O)[C@]5(C)[C@@H](C7=CC(=O)OC7)CC[C@]65O)C4)O[C@@H]3C)O[C@@H]2C)C[C@H](O)[C@@H]1O` [Example 1, 12-Epi-digoxin], the Emax worked out at 92 ± 6.5%, the “Contraction Amplitude maximum increase” value came out at 746 ± 56 mg and the therapeutic spectrum is on record as 4.49±0.35. Also, the EC50 under setting [1] was determined as 2.48 ± 0.3 µM. The EC50 under setting [2] turned out to be 0.557 ± 0.07 µM.

Consider `CO[C@H]1[C@@H](O)C[C@H](O[C@H]2[C@@H](O)C[C@H](O[C@H]3[C@@H](O)C[C@H](O[C@H]4CC[C@@]5(C)[C@H](CC[C@@H]6[C@@H]5C[C@H](O)[C@]5(C)[C@@H](C7=CC(=O)OC7)CC[C@]65O)C4)O[C@@H]3C)O[C@@H]2C)O[C@@H]1C` [Example 2, 12-Epi-β-methyldigoxin], for which the Emax came to 96 ± 6.3%, the “Contraction Amplitude maximum increase” value was determined as 666 ± 78 mg and the therapeutic spectrum was found to be 8.86±1.17. Besides, the EC50 under setting [1] was found to be 2.78 ± 0.4 µM. Also, the EC50 under setting [2] is 0.315 ± 0.02 µM.

For the compound `CC(=O)O[C@H]1C[C@H](O[C@H]2[C@@H](O)C[C@H](O[C@H]3[C@@H](O)C[C@H](O[C@H]4CC[C@@]5(C)[C@H](CC[C@@H]6[C@@H]5C[C@H](O)[C@]5(C)[C@@H](C7=CC(=O)OC7)CC[C@]65O)C4)O[C@@H]3C)O[C@@H]2C)O[C@H](C)[C@H]1O` [Example 5, α-Acetyl-12-epi-digoxin], the therapeutic spectrum is given as 3.40±0.40. The EC50 under setting [1] was 2.78 ± 0.28 µM. In addition, under setting [2], the EC50 stood at 0.848 ± 0.09 µM.

Take `CC(=O)O[C@H]1[C@@H](O)C[C@H](O[C@H]2[C@@H](O)C[C@H](O[C@H]3[C@@H](O)C[C@H](O[C@H]4CC[C@@]5(C)[C@H](CC[C@@H]6[C@@H]5C[C@H](O)[C@]5(C)[C@@H](C7=CC(=O)OC7)CC[C@]65O)C4)O[C@@H]3C)O[C@@H]2C)O[C@@H]1C` [Example 6, β-Acetyl-12-epi-digoxin]: the therapeutic spectrum is 4.25±0.51. Moreover, under setting [1], the concentration giving a half-maximal response (EC50) worked out at 3.76 ± 0.25 µM. For the same compound, the EC50 under setting [2] worked out at 0.921 ± 0.07 µM.

In turn, `CC(=O)O[C@H]1C[C@H]2[C@@H](CC[C@@H]3C[C@@H](O[C@H]4C[C@H](O)[C@H](O[C@H]5C[C@H](O)[C@H](O[C@H]6C[C@H](O)[C@H](O)[C@@H](C)O6)[C@@H](C)O5)[C@@H](C)O4)CC[C@@]32C)[C@@]2(O)CC[C@H](C3=CC(=O)OC3)[C@@]12C` [Example 7, 12-Acetyl-12-epi-digoxin] had a therapeutic spectrum of 5.15±0.71. In addition, under setting [1], the EC50 was determined as 13.8 ± 0.81 µM. The EC50 under setting [2] came to 2.86 ± 0.31 µM.

Compound `CCC1=C([C@H]2CC[C@]3(O)[C@@H]4CC[C@@H]5C[C@@H](O[C@H]6C[C@H](O)[C@H](O[C@H]7C[C@H](O)[C@H](O[C@H]8C[C@H](O)[C@H](O)[C@@H](C)O8)[C@@H](C)O7)[C@@H](C)O6)CC[C@]5(C)[C@H]4C[C@H](O)[C@]23C)COC1=O` [Example 9, 22-Ethyl-12-epi-digoxin] came in with a therapeutic spectrum of 6.39±0.96. Further, the EC50 under setting [1] came to 39.3 ± 3 µM. Further, the EC50 under setting [2] was 6.63 ± 0.75 µM.

For `CO[C@H]1[C@@H](O)C[C@H](O[C@H]2[C@@H](O)C[C@H](O[C@H]3[C@@H](O)C[C@H](O[C@H]4CC[C@@]5(C)[C@H](CC[C@@H]6[C@@H]5C[C@H](O)[C@]5(C)[C@@H](C7=C(C)C(=O)OC7)CC[C@]65O)C4)O[C@@H]3C)O[C@@H]2C)O[C@@H]1C` [Example 12, 22-Methyl-12-epi-β-methyldigoxin], the therapeutic spectrum came out at 5.15±0.59. The EC50 under setting [1] was 17 ± 1.7 µM. For the same compound, the concentration for a half-maximal effect (EC50) under setting [2] worked out at 3.55 ± 0.41 µM.

Take `CCC1=C([C@H]2CC[C@]3(O)[C@@H]4CC[C@@H]5C[C@@H](O[C@H]6C[C@H](O)[C@H](O[C@H]7C[C@H](O)[C@H](O[C@H]8C[C@H](O)[C@H](OC)[C@@H](C)O8)[C@@H](C)O7)[C@@H](C)O6)CC[C@]5(C)[C@H]4C[C@H](O)[C@]23C)COC1=O` [Example 13, 22-Ethyl-12-epi-β-methyldigoxin]: the therapeutic spectrum came out at 7.10±0.74. Moreover, the EC50 under setting [1] was found to be 40.5 ± 2.6 µM. Also, the EC50 under setting [2] was found to be 5.9 ± 0.48 µM.

`CO[C@H]1[C@@H](O)C[C@H](O[C@H]2[C@@H](O)C[C@H](O[C@H]3[C@@H](O)C[C@H](O[C@H]4CC[C@@]5(C)[C@H](CC[C@@H]6[C@@H]5C[C@H](O)[C@]5(C)[C@@H](C7=C(C(C)C)C(=O)OC7)CC[C@]65O)C4)O[C@@H]3C)O[C@@H]2C)O[C@@H]1C` [Example 14, 22-Isopropyl-12-epi-β-methyldigoxin] yielded a therapeutic spectrum of 3.08±0.45. Further, the EC50 under setting [1] amounted to 61.9 ± 5.2 µM. Under setting [2], the EC50 amounted to 21.6 ± 1.9 µM.

The compound `CO[C@H]1[C@@H](O)C[C@H](O[C@H]2[C@@H](O)C[C@H](O[C@H]3[C@@H](O)C[C@H](O[C@H]4CC[C@@]5(C)[C@H](CC[C@@H]6[C@@H]5C[C@H](OC(C)=O)[C@]5(C)[C@@H](C7=CC(=O)OC7)CC[C@]65O)C4)O[C@@H]3C)O[C@@H]2C)O[C@@H]1C` [Example 18, 12-Acetyl-12-epi-β-methyldigoxin] displayed a therapeutic spectrum of 6.50±1.5. Besides, the 50% effective concentration (EC50) under setting [1] turned out to be 25.6 ± 2.9 µM. Besides, the EC50 under setting [2] is 4.71 ± 0.81 µM.

As for `C#CCC1=C([C@H]2CC[C@]3(O)[C@@H]4CC[C@@H]5C[C@@H](O[C@H]6C[C@H](O)[C@H](O[C@H]7C[C@H](O)[C@H](O[C@H]8C[C@H](O)[C@H](OC)[C@@H](C)O8)[C@@H](C)O7)[C@@H](C)O6)CC[C@]5(C)[C@H]4C[C@H](O)[C@]23C)COC1=O` [Example 26, 22-Propargyl-12-epi-β-methyldigoxin], the therapeutic spectrum was found to be 3.94±1.0. The EC50 under setting [1] came out at 14.6 ± 1.4 µM. The EC50 under setting [2] turned out to be 4.46 ± 0.75 µM.

With `CO[C@H]1[C@@H](O)C[C@H](O[C@H]2[C@@H](O)C[C@H](O[C@H]3[C@@H](O)C[C@H](O[C@H]4CC[C@@]5(C)[C@H](CC[C@@H]6[C@@H]5C[C@@H](O)[C@]5(C)[C@@H](C7=CC(=O)OC7)CC[C@]65O)C4)O[C@@H]3C)O[C@@H]2C)O[C@@H]1C` [methyldigoxina., β-methyldigoxin, reference compound], the Emax turned out to be 75 ± 5%, the “Contraction Amplitude maximum increase” value is 292 ± 56 mg and the therapeutic spectrum is recorded as 3.06±0.36. For the same compound, under setting [1], the EC50 amounted to 0.66 ± 0.04 µM. For the same compound, under setting [2], the EC50 amounted to 0.23 ± 0.03 µM.

As a reminder, the EC50 is the midpoint of the concentration-response curve.
